Measured values from ChEMBL document CHEMBL1201862, “PubChem BioAssay data set” (2004).
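Assay format: 96-well plates, 48-hour exposure. GI50 is the concentration that inhibits growth by half.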 Calls of active or inactive are those of the source. Cut-off read from the data, not from the text of the source: active = GI50 up to about 1.1 µM and inactive = higher.

Assays:
Assay in all cases: NCI anticancer screen, dose series, 48 h
NCI-H23 = system: NCI-H23
NCI-H460 = system: NCI-H460
NCI/ADR-RES = system: NCI/ADR-RES
A549 = system: A549
U-251 = system: U-251
HCT-116 = system: HCT-116
OVCAR-4 = system: OVCAR-4
CAKI-1 = system: CAKI-1
A498 = system: A498
EKVX = system: EKVX
UO-31 = system: UO-31
SR = system: SR
COLO 205 = system: COLO 205
K562 = system: K562
Malme-3M = system: Malme-3M
HOP-92 = system: HOP-92
SK-OV-3 = system: SK-OV-3
LOX IMVI = system: LOX IMVI

Compound	GI50 (NCI-H23)	GI50 (NCI-H460)	GI50 (NCI/ADR-RES)	GI50 (A549)	GI50 (U-251)	GI50 (HCT-116)	GI50 (OVCAR-4)	GI50 (CAKI-1)	GI50 (A498)	GI50 (EKVX)	GI50 (UO-31)	GI50 (SR)	GI50 (COLO 205)	GI50 (K562)	GI50 (Malme-3M)	GI50 (HOP-92)	GI50 (SK-OV-3)	GI50 (LOX IMVI)
Nn1c(S)nnc1CCCCCCCCc1nnc(S)n1N	> 100 µM (inactive)	> 100 µM (inactive)	> 100 µM (inactive)	> 100 µM (inactive)	> 100 µM (inactive)	> 100 µM (inactive)	> 100 µM (inactive)	> 100 µM (inactive)	> 100 µM (inactive)	> 100 µM (inactive)	> 100 µM (inactive)	> 100 µM (inactive)	> 100 µM (inactive)	> 100 µM (inactive)	> 100 µM (inactive)	> 100 µM (inactive)	> 100 µM (inactive)	
CC(=O)O[C@H]1C(=O)[C@@]2(C)[C@H]([C@H](OC(=O)C3CCCCC3)[C@]3(O)C[C@H](OC(=O)[C@H](O)[C@@H](NC(=O)C4CCCCC4)C4CCCCC4)C(C)=C1C3(C)C)[C@]1(OC(C)=O)CO[C@@H]1C[C@@H]2O	< 0.0132 µM (active)	0.00723 µM (active)	1.07 µM (active)	0.0326 µM (active)	0.0117 µM (active)	0.00439 µM (active)	0.538 µM (active)	0.105 µM (active)	0.0902 µM (active)	5.61 µM (inactive)	0.344 µM (active)	0.0082 µM (active)	0.00615 µM (active)	0.0128 µM (active)	0.0323 µM (active)	0.0427 µM (active)	0.029 µM (active)	0.0272 µM (active)
Nc1ncnc2c1ncn2C1OC(CO)C(O)C1NS(=O)(=O)c1ccccc1 (stereo not drawn)	> 100 µM (inactive)	> 100 µM (inactive)	> 100 µM (inactive)	> 100 µM (inactive)	> 100 µM (inactive)	> 100 µM (inactive)	> 100 µM (inactive)	> 100 µM (inactive)	> 100 µM (inactive)	> 100 µM (inactive)	> 100 µM (inactive)	> 100 µM (inactive)	> 100 µM (inactive)	> 100 µM (inactive)	> 100 µM (inactive)	> 100 µM (inactive)	> 100 µM (inactive)	> 100 µM (inactive)
COc1ccc(/C=C2\OC(=O)C(Cl)=C2c2ccc(OC)c(Cl)c2)cc1	20 µM (inactive)	22.6 µM (inactive)	21.4 µM (inactive)	24.4 µM (inactive)	29.4 µM (inactive)	39.1 µM (inactive)	20.3 µM (inactive)	21.9 µM (inactive)	17.7 µM (inactive)	18.3 µM (inactive)	22 µM (inactive)	29 µM (inactive)	40.4 µM (inactive)	56.1 µM (inactive)	25.3 µM (inactive)	17.9 µM (inactive)	33.9 µM (inactive)	32.1 µM (inactive)
O=c1[nH]nc(-c2cccc(Br)c2)[nH]1	> 100 µM (inactive)	> 100 µM (inactive)	> 100 µM (inactive)	> 100 µM (inactive)	> 100 µM (inactive)	> 100 µM (inactive)	> 100 µM (inactive)	> 100 µM (inactive)	> 100 µM (inactive)	2.48 µM (inactive)	94.2 µM (inactive)	> 100 µM (inactive)	> 100 µM (inactive)	> 100 µM (inactive)	> 100 µM (inactive)	> 100 µM (inactive)		> 100 µM (inactive)
CCOP(=O)(OCC)/C(C#N)=C/c1ccnc2ccccc12	24.3 µM (inactive)	43.6 µM (inactive)	20.5 µM (inactive)	> 100 µM (inactive)	51.8 µM (inactive)	3.27 µM (inactive)	32.6 µM (inactive)	24 µM (inactive)	78.3 µM (inactive)	53.3 µM (inactive)	< 0.01 µM (active)	21.9 µM (inactive)	18.1 µM (inactive)		14 µM (inactive)	18.4 µM (inactive)	36.2 µM (inactive)	31.6 µM (inactive)
N#Cc1ccc(C2ON=C(c3ccccc3)N2C23CC4CC(CC(C4)C2)C3)cc1 (stereo not drawn)	> 10 µM (inactive)	> 10 µM (inactive)	0.00536 µM (active)	> 10 µM (inactive)	> 10 µM (inactive)	> 10 µM (inactive)	> 10 µM (inactive)	> 10 µM (inactive)	> 10 µM (inactive)	> 10 µM (inactive)		3.85 µM (inactive)	> 10 µM (inactive)	> 10 µM (inactive)	> 10 µM (inactive)	> 10 µM (inactive)	> 10 µM (inactive)	> 10 µM (inactive)
Cc1cccc(Cl)c1NCC(O)CN1CCN(C)CC1 (stereo not drawn)	> 100 µM (inactive)	> 100 µM (inactive)	> 100 µM (inactive)	> 100 µM (inactive)	> 100 µM (inactive)	> 100 µM (inactive)	> 100 µM (inactive)	> 100 µM (inactive)	> 100 µM (inactive)	> 100 µM (inactive)	> 100 µM (inactive)	> 100 µM (inactive)		> 100 µM (inactive)	> 100 µM (inactive)	> 100 µM (inactive)		> 100 µM (inactive)
COc1ccc2c(c1)-c1c(c3cc(OC)ccc3n1CCN(C)C)CC2	15.5 µM (inactive)	12.2 µM (inactive)	16.3 µM (inactive)	15.4 µM (inactive)	11.2 µM (inactive)	12.1 µM (inactive)	17.1 µM (inactive)	14.6 µM (inactive)	11.7 µM (inactive)		11.1 µM (inactive)	7.03 µM (inactive)	12.2 µM (inactive)	6.81 µM (inactive)	16.1 µM (inactive)	14.1 µM (inactive)	21.5 µM (inactive)	
CCOC(=O)N1CCC2(CC1)C[C@](Sc1ccccc1)(C(C)=O)[C@H](C)O2	> 100 µM (inactive)	> 100 µM (inactive)	> 100 µM (inactive)	> 100 µM (inactive)	> 100 µM (inactive)		> 100 µM (inactive)	> 100 µM (inactive)	> 100 µM (inactive)	> 100 µM (inactive)	> 100 µM (inactive)	> 100 µM (inactive)	> 100 µM (inactive)	> 100 µM (inactive)	> 100 µM (inactive)	> 100 µM (inactive)	> 100 µM (inactive)	> 100 µM (inactive)
CCOC(=O)C1C(c2ccc(O)c(OC)c2)c2c(n[nH]c2O)CC1(C)O (stereo not drawn)	> 100 µM (inactive)	> 10 µM (inactive)	> 100 µM (inactive)	> 100 µM (inactive)	> 100 µM (inactive)	> 100 µM (inactive)	> 100 µM (inactive)	> 100 µM (inactive)	> 100 µM (inactive)	> 100 µM (inactive)	> 100 µM (inactive)	> 100 µM (inactive)	> 100 µM (inactive)		> 100 µM (inactive)	> 100 µM (inactive)		> 100 µM (inactive)
COC(=O)CC[N+]1([O-])CC1	> 100 µM (inactive)	> 100 µM (inactive)	> 100 µM (inactive)	> 100 µM (inactive)	> 100 µM (inactive)	> 100 µM (inactive)	> 100 µM (inactive)		33.2 µM (inactive)	> 100 µM (inactive)	> 100 µM (inactive)	> 100 µM (inactive)	> 100 µM (inactive)		> 100 µM (inactive)	> 100 µM (inactive)	> 100 µM (inactive)	> 100 µM (inactive)
